The text below walks through data of US20090204336A1, “PDZ-Domain Modulators” (Forschungsverbund Berlin e. V., priority 2005, published 2009).

The target of assay [1] is T1, PDZ-domain of the protein AF6 (Homo sapiens, UniProt P55196).
T1 construct: The ubiquitarily 15N marked PDZ-domains of the proteins AF6; made in house
T1 sequence (P55196 1007-1093 limits assumed): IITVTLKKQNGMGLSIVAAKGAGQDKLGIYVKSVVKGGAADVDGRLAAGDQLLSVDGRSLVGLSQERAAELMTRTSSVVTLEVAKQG
As to the kind of experiment: 15N-HSQC NMR binding assay (chemical shift comparison with and without test ligand). The settings on record: for binding site occupation from backbone amide chemical shifts, compared with compound 1: 8 to 10-fold ligand excess, FIG. 8; for binding to the PDZ-domain of the protein AF6 (binding / non-binding): 8 to 10-fold molar excess of test ligand, 50 μM protein; for binding of compound with singly bound R3 compared with the doubly bound equivalent: singly vs doubly bound residue R3.
Text: The chemical shifts are split up into the 2 categories “large (bold italics)” and “small (normal letters)”. From the shown amino acid residues, the binding site of a compound on the protein can be determined by color-highlighting the backbone amide atoms of this amino acid residues in the 3D protein structure of Table 1 and creating the largest common cut set of all these atoms on the protein surface.

Assay [2] concerns the target T2, PDZ-domain of AF6 (Homo sapiens, UniProt P55196).
T2 construct: The ubiquitarily 15N marked PDZ-domains of the proteins AF6; made in house
T2 sequence (P55196 1007-1093 limits assumed): T1 sequence (P55196 1007-1093 limits assumed)
As to the kind of experiment: Kd determination by 15N-HSQC NMR titration. The assay is classed as binding. The conditions noted are these: macroscopic (apparent) Kd ± statistical standard deviation of curve adaptation; 50 μM 15N protein, pH 6.5, 300 K. The protocol:
(§1) The ubiquitarily 15N marked PDZ-domains of the proteins AF6 [Boisguerin, P. et al., Chem. Biol. 11:449-459 (2004)] and Syntrophin [Schultz, J. et al., Nat Struct Biol., 5(1):19-24 (1998)] were prepared as described in the publications. For the NMR assay 50 μM 15N marked protein are mixed in a buffer of 20 mM Na phosphate pH 6.5, 50 mM NaCl and 10% d6-DMSO with a 8 to 10-fold molar excess of test ligand and a 15N-HSQC NMR spectrum is recorded at a temperature of 300 K on a Bruker DRX 600 MHz NMR spectrometer. Secondly, an identical comparison spectrum of protein in absence of test ligand is recorded. The NMR spectra are processed with the aid of the software XWIN-NMR and compared with each other with the aid of the software Sparky. […] Exemplarily is shown such a comparison of spectra for the PDZ-domain of AF6 in FIG. 7A and for the PDZ-domain of Syntrophin in FIG. 7B.
(§2) For the determination of equilibrium dissociation constants (in short: Kd values), a test ligand is added step-wise in increasing concentrations to 50 μM protein solution, and for each concentration step a 15N-HSQC NMR spectrum is recorded under the same conditions as described above. The average chemical shift of a resonance, d, is calculated according to the following equation from the NMR raw data: […]
(§3) wherein ΔH is the shift in ppm units along the 1H resonance axis, and ΔN is the shift in ppm units along the 15N resonance axis. The average shift, d, is drawn as a function of the concentration of the test ligand, and a binding curve results, to which is adapted the following mathematical equation:
(§4) wherein Lo is the total concentration of ligands, Po is the total concentration of protein and Kd is the Kd value. This equation describes the law of mass action of a reaction “protein+ligand=complex”.
(§5) With the aid of a software such as e.g. “Origin 5.0”, the adaptation is optimized in a non-linear manner, thereby providing for each investigated resonance a microscopic Kd value. From the mean value of all relevant microscopic Kd values, a macroscopic Kd value is calculated. In Table 2, the macroscopic Kd values including the statistical standard deviation for the binding of some test ligands to the PDZ-domains of AF6 and of Syntrophin are shown.
(§6) The number behind the ± symbol indicates the statistical standard deviation of a mathematical curve adaptation to the chemical binding equation “protein+ligand=complex”.

The target in assay [3] is T3, PDZ-domain of Syntrophin (Mus musculus, UniProt Q61234).
T3 construct: made in house
T3 sequence (Q61234 81-164 limits assumed): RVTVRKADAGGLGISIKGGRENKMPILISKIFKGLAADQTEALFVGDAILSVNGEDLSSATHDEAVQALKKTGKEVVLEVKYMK
As to the kind of experiment: Kd determination by 15N-HSQC NMR titration. Type of assay: binding. The conditions noted are these: macroscopic (apparent) Kd ± statistical standard deviation of curve adaptation; 50 μM 15N protein, pH 6.5, 300 K. The method, then:
as §1, §2, §3, §4, §5, §6

Entries after “also recorded” stand apart in the source; their conditions may differ.

In the case of `CC(C)C=C1SC(=O)NC1=O` [Compound 21], in assay [1], the “binding site occupation from backbone amide chemical shifts, compared with compound 1” value was “missing occupation of the partial binding site of the trifluoromethylphenyl residue” and the “binding to the PDZ-domain of the protein AF6 (binding / non-binding)” value (from here on “binding … (binding / non-binding)”) is listed as “show a binding”.
For `CC(c1ccc(C(F)(F)F)cc1)C1SC(=S)NC1=O` (centres unmarked) [Compound 6], the “binding … (binding / non-binding)” value in assay [1] is on record as “particularly strong activity”.
Take `O=C1NC(=S)SC1Cc1cccc(C(F)(F)F)c1` (centres unmarked) [Compound 26]: the “binding of compound with singly bound R3 compared with the doubly bound equivalent” value in assay [1] is on record as “weaker binding”.
Take `CN(C)CCN=C1NC(=O)C(=Cc2ccc(C(F)(F)F)cc2)S1` [Compound 39]: the “binding … (binding / non-binding)” value in assay [1] is reported as “non-binding”.
As for `O=C1NC(=NCCCc2ccccc2)SC1=Cc1ccc(C(F)(F)F)cc1` [Compound 40], in assay [1], the “binding … (binding / non-binding)” value is listed as “non-binding”.
`O=C1NC(=S)SC1=Cc1ccc(C(F)(F)F)cc1` [Compound 9]: in assay [1], the “binding … (binding / non-binding)” value is on record as “binding; also recorded: particularly strong activity”.
Turning to `O=C1NC(=S)SC1=Cc1c[nH]c2ccccc12` [Compound 29], the “binding … (binding / non-binding)” value in assay [1] is reported as “non-binding; also recorded: do not show any binding”.
Turning to `O=C1NC(=S)SC1Cc1ccc(C(F)(F)F)cc1` (centres unmarked) [Compound 1], in assay [1], the “binding … (binding / non-binding)” value was “show a binding; also recorded: particularly strong activity” and the “binding of compound with singly bound R3 compared with the doubly bound equivalent” value is listed as “stronger binding”. Moreover, in assay [2], the Kd amounted to 101 µM. The Kd in assay [3] was determined as 239 ± 12 µM.
On to `O=C1NC(=S)SC1Cc1ccsc1` (centres unmarked) [Compound 5], for which, in assay [1], the “binding … (binding / non-binding)” value is “show a binding”.
`O=C1NC(=S)SC1Cc1ccc(Br)cc1` (centres unmarked) [Compound 2]: the “binding … (binding / non-binding)” value in assay [1] was “particularly strong activity”.
The same measure, in the same setting: as for `CN1C(=O)C(=Cc2ccc(C(F)(F)F)cc2)SC1=S` [Compound 31], the entry is “non-binding”.
For `O=C(O)c1cc2cc(Br)ccc2c(Br)c1O` [Compound 41], the Kd in assay [2] is 419 ± 30 µM.
Turning to `O=c1[nH]c2c(Cl)c(Cl)c(Cl)cc2o1` [II], the figures for the Kd in assay [2] and in assay [3] were 480 ± 33 µM and 398 ± 32 µM, respectively.
As for `O=C1NC(=S)SC1Cc1ccoc1` (centres unmarked) [Compound 4], the “binding … (binding / non-binding)” value in assay [1] is “show a binding”.
For the molecule `NC1=NC(=O)C(=Cc2ccsc2)S1` [Compound 38], the “binding … (binding / non-binding)” value in assay [1] is on record as “non-binding”.
With `O=C1NC(=S)SC1=Cc1ccc(-c2ccccc2)cc1` [Compound 30], the “binding … (binding / non-binding)” value in assay [1] was “non-binding; also recorded: do not show any binding”.
As to `O=C1NC(=O)C(Cc2ccc(C(F)(F)F)cc2)S1` (centres unmarked) [Compound 7], the “binding … (binding / non-binding)” value in assay [1] is “particularly strong activity”. The Kd in assay [2] came to 280 ± 22 µM; in assay [3], 330 ± 17 µM.
With `CN1C(=O)C(=Cc2cccc(C(F)(F)F)c2)SC1=S` [Compound 32], in assay [1], the “binding … (binding / non-binding)” value is reported as “non-binding”.
With `O=C1NC(=S)SC1=Cc1ccsc1` [Compound 13], in assay [1], the “binding … (binding / non-binding)” value is “binding”.
Take `O=C1NC(=S)SC1Cc1ccccc1` (centres unmarked) [Compound 3]: the “binding … (binding / non-binding)” value in assay [1] is recorded as “show a binding”.
For the molecule `O=C(O)c1cccc([N+](=O)[O-])c1O` [Compound 46], the “binding site occupation from backbone amide chemical shifts, compared with compound 1” value in assay [1] was “does not or only insufficiently occupy the binding sites L25 to V28 and S75 to T91”.
For `O=C1NC(=S)SC1=Cc1cccc(C(F)(F)F)c1` [Compound 14], in assay [1], the “binding … (binding / non-binding)” value is “binding”.
